In the Kinase Knowledgebase extract (Sharma et al. 2016) one finds IC50 data, which are given here for 60 compounds.

Molecules are shown by their SMILES.

The first assay deals with EGFR (human) (UniProt P00533). The note with it: a431.
Chain of EGFR (human) (P00533 whole entry, looked up): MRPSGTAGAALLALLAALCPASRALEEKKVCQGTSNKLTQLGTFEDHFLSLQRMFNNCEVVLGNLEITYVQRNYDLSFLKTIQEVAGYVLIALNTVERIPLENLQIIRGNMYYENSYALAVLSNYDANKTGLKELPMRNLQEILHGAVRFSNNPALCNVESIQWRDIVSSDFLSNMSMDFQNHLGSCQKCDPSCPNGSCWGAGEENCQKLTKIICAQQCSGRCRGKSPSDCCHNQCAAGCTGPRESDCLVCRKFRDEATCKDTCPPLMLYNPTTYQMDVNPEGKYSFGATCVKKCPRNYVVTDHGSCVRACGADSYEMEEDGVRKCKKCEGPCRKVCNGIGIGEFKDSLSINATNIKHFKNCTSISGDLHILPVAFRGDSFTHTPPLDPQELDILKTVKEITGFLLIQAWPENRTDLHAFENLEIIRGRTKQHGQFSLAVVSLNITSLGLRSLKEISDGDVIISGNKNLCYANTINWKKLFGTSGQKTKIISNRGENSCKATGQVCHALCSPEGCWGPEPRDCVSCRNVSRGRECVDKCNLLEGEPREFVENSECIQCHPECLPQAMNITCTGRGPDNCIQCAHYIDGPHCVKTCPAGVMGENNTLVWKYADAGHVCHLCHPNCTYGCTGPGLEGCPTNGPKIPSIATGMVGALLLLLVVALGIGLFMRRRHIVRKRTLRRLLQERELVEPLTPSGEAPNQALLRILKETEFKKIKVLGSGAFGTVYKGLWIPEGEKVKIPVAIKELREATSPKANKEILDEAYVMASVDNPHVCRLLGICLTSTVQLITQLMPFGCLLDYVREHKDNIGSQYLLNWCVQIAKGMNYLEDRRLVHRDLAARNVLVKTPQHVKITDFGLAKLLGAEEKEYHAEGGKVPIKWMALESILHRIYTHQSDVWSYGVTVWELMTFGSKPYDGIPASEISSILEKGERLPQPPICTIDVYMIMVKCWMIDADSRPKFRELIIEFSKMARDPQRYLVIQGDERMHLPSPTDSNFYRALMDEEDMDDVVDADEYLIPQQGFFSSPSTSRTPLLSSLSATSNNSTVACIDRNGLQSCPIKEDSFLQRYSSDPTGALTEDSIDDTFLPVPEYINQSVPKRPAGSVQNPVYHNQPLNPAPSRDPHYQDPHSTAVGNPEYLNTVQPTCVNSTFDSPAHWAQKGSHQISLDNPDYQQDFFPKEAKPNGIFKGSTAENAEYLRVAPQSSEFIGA
With `COc1cc2nccc(Oc3ccc(C(=O)c4ccccc4C(F)(F)F)cc3)c2cc1OC`, the IC50 (usually the midpoint of a concentration-inhibition curve) amounted to 21 µM. In turn, `COc1cc2nccc(Oc3c(OC)cccc3OC)c2cc1OC` registered a 50% inhibitory concentration (IC50) of 81 µM. On the same count and under the same terms, under `COc1cc2nccc(Oc3cccc(O)c3)c2cc1OC` stands 19 µM; under `COc1cc2nccc(Oc3ccc(C(=O)c4ccc(C)cc4)cc3)c2cc1OC`, more than 100 µM. `CCCCc1ccc(C(=O)Nc2ccc(Oc3ccnc4cc(OC)c(OC)cc34)cc2)cc1` showed an IC50 of more than 100 µM.

Regarding `COc1cc2nccc(Oc3ccc(NC(=O)c4ccc(Br)cc4)cc3)c2cc1OC`, the IC50 came to 48 µM. For the compound `COc1cc2nccc(Oc3ccc(C(=O)C4CCCCC4)cc3)c2cc1OC`, the IC50 was more than 100 µM.

Take `COc1cc2nccc(Oc3ccc(N)cc3)c2cc1OC`: the IC50 is more than 100 µM. Still for that read-out and setting: under `COc1cc2nccc(Oc3ccc(C(=O)c4ccc([N+](=O)[O-])cc4)cc3)c2cc1OC` stands more than 100 µM; under `COc1ccc(C(=O)Nc2ccc(Oc3ccnc4cc(OC)c(OC)cc34)cc2)cc1OC`, more than 100 µM. Compound `COc1cc2nccc(Oc3ccccc3)c2cc1OC` came in with an IC50 of 50 µM.

As to `COc1cc2nccc(Oc3cccc(F)c3)c2cc1OC`, the concentration for half-maximal inhibition (IC50) is 24 µM. `COc1cc2nccc(Oc3ccc(C(=O)c4ccccc4)cc3)c2cc1OC` yielded a half-maximal inhibitory concentration (IC50) of 50 µM. Regarding `COC(=O)c1cccc(Oc2ccnc3cc(OC)c(OC)cc23)c1`, the half-inhibitory concentration (IC50) is more than 100 µM. Compound `COc1cc2nccc(Oc3ccc(C(=O)c4ccc(-c5ccccc5)cc4)cc3)c2cc1OC` registered an IC50 of more than 100 µM.

Turning to `COc1cc2nccc(Oc3ccc(C(=O)c4cccc(C(F)(F)F)c4)cc3)c2cc1OC`, the half-inhibitory concentration (IC50) is more than 100 µM. The same measure, in the same setting: under `COc1cc2nccc(Oc3ccc(NC(=O)C4CCCC4)cc3)c2cc1OC` stands more than 100 µM; under `COc1cc2nccc(Oc3ccc(NC(C)=O)cc3)c2cc1OC`, more than 100 µM. As to `COc1cc2nccc(Oc3cccc(C)c3)c2cc1OC`, the IC50 was 14 µM.

`COc1cc2nccc(Oc3ccccc3C(=O)c3ccccc3)c2cc1OC` had a concentration for half-maximal inhibition (IC50) of 14 µM.

As for `CCCCc1ccc(C(=O)c2ccc(Oc3ccnc4cc(OC)c(OC)cc34)cc2)cc1`, the half-maximal inhibitory concentration (IC50) is more than 100 µM. As for `COc1cc2nccc(Oc3ccccc3OC)c2cc1OC`, the concentration for half-maximal inhibition (IC50) amounted to 92 µM. The compound `COc1cc2nccc(Oc3ccc(NC(=O)c4ccc(-c5ccccc5)cc4)cc3)c2cc1OC` yielded a half-inhibitory concentration (IC50) of more than 100 µM.

For the compound `COc1cc2nccc(Oc3cccc(OC)c3OC)c2cc1OC`, the IC50 is more than 100 µM. In the case of `COc1cccc(Oc2ccnc3cc(OC)c(OC)cc23)c1`, the IC50 was found to be 18 µM. The same measure, in the same setting: to `COc1ccc(Oc2ccnc3cc(OC)c(OC)cc23)cc1` belongs 44 µM. In turn, `COc1cc2nccc(Oc3cccc(C(=O)c4ccccc4)c3)c2cc1OC` showed a half-maximal inhibitory concentration (IC50) of 89 µM. Regarding `COc1cc2nccc(Oc3cccc([N+](=O)[O-])c3)c2cc1OC`, the 50% inhibitory concentration (IC50) was found to be 35 µM. As for `COc1cc(OC)cc(Oc2ccnc3cc(OC)c(OC)cc23)c1`, the concentration for half-maximal inhibition (IC50) was found to be 49 µM.

`COc1cc2nccc(Oc3cccc(N)c3)c2cc1OC`: the concentration for half-maximal inhibition (IC50) amounted to 40 µM.

Take `COc1cc2nccc(Oc3ccc(C(=O)c4ccc(Cl)c(Cl)c4)cc3)c2cc1OC`: the IC50 was 31 µM. Consider `COc1cc2nccc(Oc3ccc(NC(=O)c4ccc(C(C)=O)cc4)cc3)c2cc1OC`, for which the half-inhibitory concentration (IC50) is more than 100 µM. `COc1cc2nccc(Oc3ccc(N(C)C(=O)c4ccc(C(C)(C)C)cc4)cc3)c2cc1OC` had an IC50 of 6 µM. `COc1cc2nccc(Oc3ccc(C(=O)c4ccc(F)cc4)cc3)c2cc1OC` yielded a 50% inhibitory concentration (IC50) of 75 µM. As for `CCCCOc1ccc(C(=O)Nc2ccc(Oc3ccnc4cc(OC)c(OC)cc34)cc2)cc1`, the half-inhibitory concentration (IC50) was more than 100 µM. `COc1cc2nccc(Oc3ccc(NC(=O)c4ccc(C(F)(F)F)cc4)cc3)c2cc1OC` returned a 50% inhibitory concentration (IC50) of 93 µM. Compound `COc1cc2nccc(Oc3cccc(C(C)=O)c3)c2cc1OC` had an IC50 of more than 100 µM. For `COc1cc2nccc(Oc3ccc(NC(=O)c4ccc(C(C)(C)C)cc4)cc3)c2cc1OC`, the concentration for half-maximal inhibition (IC50) is more than 100 µM. Same read-out and setting: under `COc1cc2nccc(Oc3ccc(C(=O)c4cccc(C)c4)cc3)c2cc1OC` stands 95 µM; under `COc1cc2nccc(Oc3ccc(C(=O)c4ccc(C#N)cc4)cc3)c2cc1OC`, more than 100 µM. Still for that read-out and setting: to `COc1cc2nccc(Oc3ccc(C(=O)c4ccc(OC(F)(F)F)cc4)cc3)c2cc1OC` belongs more than 100 µM. In turn, `COc1cc2nccc(Oc3ccc(C(=O)c4ccc(Cl)cc4)cc3)c2cc1OC` registered an IC50 of more than 100 µM. Same read-out and setting: to `COc1cc2nccc(Oc3ccc(C(C)=O)cc3)c2cc1OC` belongs more than 100 µM; to `COc1cc2nccc(Oc3ccc(NC(=O)C4CCCCC4)cc3)c2cc1OC`, more than 100 µM.

For `COc1cc2nccc(Oc3ccc(C(=O)c4cccc(F)c4)cc3)c2cc1OC`, the IC50 came out at 28 µM. The same measure, in the same setting: under `COc1cc2nccc(Oc3ccc(C(=O)c4ccc(C(C)(C)C)cc4)cc3)c2cc1OC` stands more than 100 µM; under `COc1cc2nccc(Oc3ccc(C(=O)c4ccccc4C)cc3)c2cc1OC`, 43 µM. Consider `COc1cc2nccc(Oc3ccc(C(=O)c4ccco4)cc3)c2cc1OC`, for which the 50% inhibitory concentration (IC50) was more than 100 µM.

On to `COc1cc2nccc(Oc3ccc(NC(=O)c4cccs4)cc3)c2cc1OC`, for which the IC50 is more than 100 µM. Same read-out and setting: under `COc1cc2nccc(Oc3ccc(C(=O)Nc4ccc(C(C)(C)C)cc4)cc3)c2cc1OC` stands 30 µM; under `COc1cc2nccc(Oc3ccc(Br)cc3)c2cc1OC`, 20 µM; under `COc1cc2nccc(Oc3ccccc3N)c2cc1OC`, less than 10 µM.

Compound `COc1cc2nccc(Oc3ccc(C(=O)c4ccc(I)cc4)cc3)c2cc1OC` showed an IC50 of more than 100 µM. Compound `COc1cc2nccc(Oc3ccc(C(=O)c4ccc(Br)cc4)cc3)c2cc1OC` returned an IC50 of more than 100 µM. Take `COc1cc2nccc(Oc3ccc(NC(=O)c4ccc([N+](=O)[O-])cc4)cc3)c2cc1OC`: the IC50 was more than 100 µM. The same measure, in the same setting: to `COc1cc2nccc(Oc3cccc(NC(=O)c4ccc(C(C)(C)C)cc4)c3)c2cc1OC` belongs 0.65 µM; to `COc1cc2nccc(Oc3ccc(C(=O)c4ccc(C(F)(F)F)cc4)cc3)c2cc1OC`, more than 100 µM. Take `COc1cc2nccc(Oc3ccc(C(=O)c4cccs4)cc3)c2cc1OC`: the IC50 turned out to be 16 µM. Regarding `COc1cc2nccc(Oc3ccc(O)cc3)c2cc1OC`, the IC50 is 16 µM. Compound `COc1cc2nccc(Oc3ccc(NC(=O)c4ccco4)cc3)c2cc1OC` yielded an IC50 of more than 100 µM.

The target in another assay is EGFR (UniProt P00533).
Chain of EGFR (P00533 whole entry, looked up): as above
Details: not given
As for `COc1cc2nccc(Oc3ccc(NC(=O)c4ccc(C(C)(C)C)cc4)cc3)c2cc1OC`, the 50% inhibitory concentration (IC50) was more than 100 µM. `COc1cc2nccc(Oc3ccc(C(=O)c4ccc(C(C)(C)C)cc4)cc3)c2cc1OC` had an IC50 of more than 100 µM.
